For 1 cell line, relative viability results are on record in the supplement of paper PMC10307832.

What all share (test): relative viability (nuclei count vs DMSO), 5 days (fraction); higher = more cells survive
Compound in experiment [1]: COC1=CC=C(C=C1)CN2C=CC3=C2C=C(C=C3)C(=O)NO + N=C(N)NC(=N)NCCc1ccccc1 [Phenformin] (partner 250 µM)
Summed up: (§1)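 Dosing by pin tool came one day after lung cancer cell lines were seeded in 1536-well plates, using either one drug or a fixed anchor-drug dose plus five library-drug doses (not always all listed) in √10 steps. After 5 days, nuclei were counted on 4× images. Relative viability is treated-well nuclei count divided by vehicle-well nuclei count, and values are medians of duplicate plates.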

Compound in experiment [2]: COC1=CC=C(C=C1)CN2C=CC3=C2C=C(C=C3)C(=O)NO + Cc1nc(NC(=O)N2CCC[C@H]2C(N)=O)sc1-c1ccnc(C(C)(C)C(F)(F)F)c1 [Alpelisib] (partner 2 µM)
Summed up:
as §1

Compound in experiment [3]: COC1=CC=C(C=C1)CN2C=CC3=C2C=C(C=C3)C(=O)NO + C[C@@H](Oc1cc(-c2cnn(C3CCNCC3)c2)cnc1N)c1c(Cl)ccc(F)c1Cl [Crizotinib] (partner 1 µM)
Summed up: as §1

Compound in experiment [4]: COC1=CC=C(C=C1)CN2C=CC3=C2C=C(C=C3)C(=O)NO + CCNC(=O)c1noc(-c2cc(C(C)C)c(O)cc2O)c1-c1ccc(CN2CCOCC2)cc1 [Luminespib] (partner 0.01 µM)
Summed up:
as §1

Compound in experiment [5]: COC1=CC=C(C=C1)CN2C=CC3=C2C=C(C=C3)C(=O)NO + CC(=O)c1c(C)c2cnc(Nc3ccc(N4CCNCC4)cn3)nc2n(C2CCCC2)c1=O [Palbociclib] (partner 0.5 µM)
An outline of the steps: as §1

Take SW 1573: the relative viability in experiment [1] (first compound 0.253 µM) was found to be 0.368; in experiment [1] (first compound 0.8 µM) it was 0.426; in experiment [1] (first compound 2.53 µM) it was 0.379; in experiment [1] (first compound 8 µM) it was 0.331; in experiment [2] (first compound 0.253 µM), 0.824; in experiment [2] (first compound 0.8 µM), 0.734. Further, the relative viability in experiment [2] (first compound 2.53 µM) turned out to be 0.72; in experiment [2] (first compound 8 µM), 0.787; in experiment [3] (first compound 0.253 µM), 0.908; in experiment [3] (first compound 0.8 µM), 0.803; in experiment [3] (first compound 2.53 µM) it was 0.755; in experiment [3] (first compound 8 µM), 0.587. The relative viability in experiment [4] (first compound 0.253 µM) was found to be 0.522; in experiment [4] (first compound 0.8 µM), 0.279; in experiment [4] (first compound 2.53 µM), 0.298; in experiment [4] (first compound 8 µM), 0.491; in experiment [5] (first compound 0.253 µM), 0.397; in experiment [5] (first compound 0.8 µM), 0.474. The relative viability in experiment [5] (first compound 2.53 µM) was 0.392; in experiment [5] (first compound 8 µM) it was 0.326.
